Consider 1 substance from patent US10555957B2, “Methods and compositions for enriching DHA levels in the brain” (The Board of Trustees of the University of Illinois, a body …, priority 2017, dated 2020).

What all share (assay type): in vivo, Mice
Series [1] relates to BDNF. Put plainly: BDNF levels in the brain after feeding free EPA or LPC-EPA. The settings on record: 1 mg EPA/day for 15 days. The method, then:
The compounds were dispersed in corn oil (80 μl) and fed daily by gavge. Results are shown in e.g. […]. […] See e.g. FIGS. 23A-23C.

Series [2] is described as follows: Feeding free EPA or LPC-EPA for 15 days: omega 3 fatty acids and arachidonic acid in tissues. To be noted: 1 mg EPA/day for 15 days.
Assay in series [3]: as above
The settings on record: oral. The method, then:
Mice were fed oral preparations of free EPA or LPC-EPA at about 1 mg/kg per day for 15 days. The compounds were dispersed in corn oil (80 μl) and fed daily by gavge.

“eicosapenteanoic acid-lysophosphatidylcholine [LPC-EPA]”: in series [1], the “BDNF levels in the brain” value is reported as “increased”. Moreover, in series [2], the “arachidonic acid in the brain, LPC-EPA versus free EPA” value is on record as “decreased it more”; the “concentration of arachidonic acid in all tissues” value is reported as “decreased”; the “enriching the total omega 3 fatty acids in the heart” value is “equally efficient”. Also, in series [3] (15 days), the “all three n-3 fatty acids in the liver” value was “increased”, the “decrease in liver arachidonic acid level” value is listed as approximately 60% and the “decrease of brain content of arachidonic acid” value is approximately 40%. Also, the “increase of total amount of brain Omega 3 fatty acids (EPA+DPA+DHA)” value in series [3] (about 1 mg/kg per day for 15 days) was “about 90%”. In series [3] (about 1 mg/kg per day for 15 days, corn oil gavage), the “increase of brain DHA content” value was 60%.
